Series [1] in a line: Plasma protein binding by equilibrium dialysis, mouse. It counts as in vitro ADME. The note with it: for recovery at 6 h, 1 µM: CD-1, mouse, plasma. Here is the method: (§1) The final concentration of compound was 1 μM. The final concentration of DMSO was 0.5%. Ketoconazole was used as positive control in the assay.
(§2) The assay was performed in duplicate.
(§3) All calculations were carried out using Microsoft Excel. […] The percentages of bound compound were calculated as follows: […]
(§4) Ketoconazole was used as positive control in the assay.

The nature of series [2]: Plasma protein binding by equilibrium dialysis, rat. As for the experimental part: 1. The Frozen Plasma (Stored at −80° C.) was Thawed Immediately in a 37° C. Water Bath.
The working solution of test compounds and control compound was prepared in DMSO at the concentration of 200 μM, and then the working solution was spiked into plasma. The final concentration of compound was 1 μM. The final concentration of DMSO was 0.5%. Ketoconazole was used as positive control in the assay.
The dialysis membranes were soaked in ultrapure water for 60 minutes to separate strips, then in 20% ethanol for 20 minutes, finally in dialysis buffer for 20 minutes.
The dialysis set up was assembled according to the manufacturer's instruction. Each Cell was with 150 μL of plasma sample and dialyzed against equal volume of dialysis buffer (PBS). The assay was performed in duplicate. The dialysis plate was sealed and incubated in an incubator at 37° C. with 5% CO2 at 100 rpm for 6 hours. At the end of incubation, 50 μL of samples from both buffer and plasma chambers were transferred to wells of a 96-well plate.
50 μL of plasma was added to each buffer samples and an equal volume of PBS was supplemented to the collected plasma sample. 400 μL of precipitation buffer acetonitrile containing internal standards (IS, 200 nM labetalol, 100 nM tolbutamide and 100 nM ketoprofen) was added to precipitate protein and release compounds. Samples were vortexed for 2 minutes and centrifuged for 30 minutes at 3,220 g. Aliquot of 50 μL of the supernatant was diluted by 150 μL acetonitrile containing internal standards: ultra-pure H2O=1:1, and the mixture was used for LC-MS/MS analysis.
All calculations were carried out using Microsoft Excel. The concentrations of test compounds in the buffer and plasma chambers were determined from peak area ratios. The percentages of bound compound were calculated as follows: […]
The working solution of test compounds and control compound was prepared in DMSO at the concentration of 200 μM, and then the working solution was spiked into plasma. The final concentration of compound was […]. The final concentration of DMSO was 0.5%. Ketoconazole was used as positive control in the assay.

A short description of series [3]: Plasma protein binding by equilibrium dialysis, dog. The conditions noted are these: for recovery at 6 h, 1 µM: dog. Type of series: in vitro ADME. Here is the method: as §1, §2, §3, §4
The nature of series [4]: Plasma protein binding by equilibrium dialysis, human. It counts as in vitro ADME. The conditions noted are these: for recovery at 6 h, 1 µM / fraction unbound at 6 h, 1 μM: human, plasma; for fraction unbound at 6 h, 1 μM: read-out: % Bound (converted). Here is the method:
as §1, §2, §3, §4
(Equilibrium dialysis compares concentrations on both sides of a semipermeable membrane.)

The mark [5] stands for this setting: mouse plasma, equilibrium dialysis, 37° C., 6 hours.
The mark [6] stands for this setting: human plasma, equilibrium dialysis, 37° C., 6 hours.

Molecules are shown by their SMILES.

Regarding `CC(=O)N1CCN(c2ccc(OCC3COC(Cn4ccnc4)(c4ccc(Cl)cc4Cl)O3)cc2)CC1` (stereo not shown) [Ketoconazole, reference compound], the recovery at 6 h, 1 µM in series [1] (Mouse plasma, 1 μM, equilibrium dialysis 6 hours) turned out to be 109%; in series [1] (setting [5]), 94.7%; in series [2] (SD, rat), 105%; in series [2] (Sprague-Dawley (SD), rat) it was 101%; in series [3] (Beagle, Dog plasma, 1 μM, equilibrium dialysis 6 hours) it was 87.2%; in series [3] (Beagle, dog plasma, equilibrium dialysis, 37° C., 6 hours), 86.1%. The recovery at 6 h, 1 µM was determined as 112% in series [4] (Human plasma, 1 μM, equilibrium dialysis 6 hours) and 101% in series [4] (setting [6]). Moreover, the fraction unbound at 6 h, 1 μM was 0.0068 in series [1] (CD-1, Mouse plasma, 1 μM, equilibrium dialysis 6 hours, 37° C., read-out: % Bound (converted)); 0.0045 in series [2] (Sprague-Dawley, rat, plasma); 0.0105 in series [3] (Beagle, dog plasma, equilibrium dialysis, 37° C., 6 hours, read-out: % Bound (converted)); 0.0088 in series [4] (Human plasma, 1 μM, equilibrium dialysis 6 hours, 37° C.); 0.0076 in series [4] (setting [6]). Besides, the “% Remaining @ 6 hours” value worked out at 103.60% in series [1] (Mouse plasma, 1 μM, 6 hours, 37° C.); 108.54% in series [1] (mouse plasma, 6 hours); 101.20% in series [2] (Rat plasma, 1 μM, 37° C.); 109.42% in series [2] (rat plasma); 92.22% in series [3] (Dog plasma, 1 μM, 6 hours, 37° C.); 87.36% in series [3] (dog plasma, 6 hours). The “% Remaining @ 6 hours” value in series [4] (Human plasma, 1 μM, 6 hours, 37° C.) was determined as 114.03%; in series [4] (human plasma, 6 hours), 99.64%. Moreover, in series [1] (setting [5]), the “% Bound” value was 99.32%.

These data come from patent US12606543B2, “Indole derivatives as serotonergic agents useful for the treatment of disorders related thereto” (priority 2023, dated 2026).
